# Data published in patent US11096923B2, “Pharmaceutical composition containing polymyxin B/trimethoprim based therapeutics” (University of Rochester, priority 2016, dated 2021).
# Where “and” joins values, the source holds several entries; their conditions need not be identical. Equal entries are not always repeated.
# Columns and labels:
# [1] = test system: S. aureus UAMS-1 biofilms; assay: Biofilm susceptibility; assay type: cell-based, Staphylococcus aureus; settings: established S. aureus biofilm, any concentration tested
# From the text: Bacterial strains used in these studies include the conventional laboratory strains Pseudomonas aeruginosa PA01 and Staphylococcus aureus UAMS-1, both of which are antibiotic susceptible and capable of forming robust biofilms. See […], Thomas J R, Nelson […]. Role of the accessory gene regulator (agr) in pathogenesis of staphylococcal osteomyelitis. Infection and immunity 1995; 63:3373-3380. Seven clinical keratitis isolates of Pseudomonas aeruginosa, were collected from the Flaum Eye Institute, Rochester N.Y. and 25 clinical isolates of Staphylococcus aureus from geographically distinct regions of the country where purchased from International Health Management Associates (IHMA; Schaumburg, Ill.). For experiments requiring planktonic cultures, the indicated organism was grown overnight in Luria-Bertani broth (LB; […] Biofilms were established by inoculating individual wells of flat-bottom polystyrene plates (Falcon, Corning Life Sciences; Durham, N.C.) with overnight cultures of the indicated organism into 200 ul of fresh LB to a final concentration of 1×10^7 CFU ml^-1. Plates were placed in a 37° C.-humidified incubator for 72 hours to allow static biofilm formation. Non-adherent cells were aspirated and biofilms were washed twice with phosphate-buffered saline prior to each experiment. […] After 24 hrs the remaining media and non-adherent cells were removed, biofilms were suspended in 0.8% NaCl and plated to quantify surviving bacteria. […] Biofilms were treated in increasing increments ranging from 0 to 64×MIC.
# [2] = test system: S. aureus; assay: Fractional inhibitory concentration, checkerboard MIC; assay type: cell-based, Staphylococcus aureus; settings: for MIC in combination: PT combined with tobramycin; for MIC: Staphylococcus aureus
# [3] = test system: planktonic P. aeruginosa cells; assay: Antimicrobial kill curves; assay type: cell-based, Pseudomonas aeruginosa; settings: 2× MIC
# Method: Overnight cultures of the indicated organism were used to inoculate (1:100 dilution) 100 ml of fresh media and grown to mid-exponential phase. […] Aliquots were taken at 1, 2, 3, 4, and 24 hours, serial diluted and plated for colony forming units.
# [4] = test system: P. aeruginosa; assay: Fractional inhibitory concentration, checkerboard MIC; assay type: cell-based, Pseudomonas aeruginosa; settings: for MIC in combination: PT combined with tobramycin; for MIC: Pseudomonas aeruginosa
# [5] = test system: P. aeruginosa strain PA01 biofilms; assay: Biofilm susceptibility; assay type: cell-based, Pseudomonas aeruginosa; settings: established PA01 biofilm, 24 hrs treatment, 32×MIC
# From the text: Bacterial strains used in these studies include the conventional laboratory strains Pseudomonas aeruginosa PA01 and Staphylococcus aureus UAMS-1, both of which are antibiotic susceptible and capable of forming robust biofilms. See […], Thomas J R, Nelson […]. Role of the accessory gene regulator (agr) in pathogenesis of staphylococcal osteomyelitis. Infection and immunity 1995; 63:3373-3380. Seven clinical keratitis isolates of Pseudomonas aeruginosa, were collected from the Flaum Eye Institute, Rochester N.Y. and 25 clinical isolates of Staphylococcus aureus from geographically distinct regions of the country where purchased from International Health Management Associates (IHMA; Schaumburg, Ill.). […] After 24 hrs the remaining media and non-adherent cells were removed, biofilms were suspended in 0.8% NaCl and plated to quantify surviving bacteria. […] Biofilms were treated in increasing increments ranging from 0 to 64×MIC.
# [6] = test system: P. aeruginosa PAO1; assay: Selleck library screen in presence of sub-inhibitory polymyxin B/trimethoprim; assay type: cell-based, Pseudomonas aeruginosa; set-up: key: Growth (+); no growth (−)
# Method: To identify agents that potentiate the antimicrobial activity of polymyxin B/trimethoprim we first determined the highest concentration of the polymyxin B/trimethoprim combination that allowed growth of P. aeruginosa strain PAO1 and S. aureus strain UAMS-1.
# For Selleck library screening, individual wells of 96-well microtiter plates containing 88 μl of fresh media were inoculated with approximately 10^5 CFUs of P. aeruginosa strain PAO1 or S. aureus UAMS-1. Next, 2 μl of polymyxin B/trimethoprim was added to a final concentration of 0.2 μg ml^−1 or 1.25 μg ml^−1 for PA01 and UAMS-1, respectively. Library members were then added at either 5 μM or 50 μM final concentration. Plates were incubated at 37° C. for 16 hours and hits were identified as wells with no visible growth. […]
smiles,measurement,setting,value
"NC[C@H]1O[C@H](O[C@H]2[C@H](O)[C@@H](O[C@H]3O[C@H](CO)[C@@H](O)[C@H](N)[C@H]3O)[C@H](N)C[C@@H]2N)[C@H](N)C[C@@H]1O [Tobramycin, tobramycin]",activity against biofilm-associated cells,[1],"neither tobramycin, polymyxin B/trimethoprim nor their combination displayed significant activity"
same,MIC in combination,[2]; S. aureus 1071788,0.48 µg/mL
same,MIC in combination,[2]; S. aureus 1094094,3.9 µg/mL
same,MIC in combination,[2]; S. aureus 1094140,1.9 µg/mL
same,MIC in combination,[2]; S. aureus 1094147,3.9 µg/mL
same,MIC in combination,[2]; S. aureus 1094166,0.48 µg/mL
same,MIC in combination,[2]; S. aureus 1094178,7.8 µg/mL
same,MIC in combination,[2]; S. aureus 1097612,3.9 µg/mL
same,MIC in combination,[2]; S. aureus 1097630,3.9 µg/mL
same,MIC in combination,[2]; S. aureus 1101442,0.97 µg/mL
same,MIC in combination,[2]; S. aureus 1103430,0.48 µg/mL
same,MIC in combination,[2]; S. aureus 1110936,0.48 µg/mL
same,MIC in combination,[2]; S. aureus 1111063,3.9 µg/mL
same,MIC in combination,[2]; S. aureus 1122181,3.9 µg/mL
same,MIC in combination,[2]; S. aureus 1122187,0.48 µg/mL
same,MIC in combination,[2]; S. aureus 1122190,3.9 µg/mL
same,MIC in combination,[2]; S. aureus 1122197,0.48 µg/mL
same,MIC in combination,[2]; S. aureus 1125120,15.6 µg/mL
same,MIC in combination,[2]; S. aureus 1132822,0.97 µg/mL
same,MIC in combination,[2]; S. aureus 1142776,0.48 µg/mL
same,MIC in combination,[2]; S. aureus 1144105,0.48 µg/mL
same,MIC in combination,[2]; S. aureus UAMS-1,0.48 µg/mL
same,MIC,[2]; S. aureus 1071788,0.97 µg/mL
same,MIC,[2]; S. aureus 1094094,3.9 µg/mL
same,MIC,[2]; S. aureus 1094140,7.8 µg/mL
same,MIC,[2]; S. aureus 1094147,7.8 µg/mL
same,MIC,[2]; S. aureus 1094166,1.9 µg/mL
same,MIC,[2]; S. aureus 1094178,7.8 µg/mL
same,MIC,[2]; S. aureus 1097612,15.6 µg/mL
same,MIC,[2]; S. aureus 1097630,7.8 µg/mL
same,MIC,[2]; S. aureus 1101442,3.9 µg/mL
same,MIC,[2]; S. aureus 1103430,1.9 µg/mL
same,MIC,[2]; S. aureus 1110936,1.9 µg/mL
same,MIC,[2]; S. aureus 1111063,7.8 µg/mL
same,MIC,[2]; S. aureus 1122181,7.8 µg/mL
same,MIC,[2]; S. aureus 1122187,1.9 µg/mL
same,MIC,[2]; S. aureus 1122190,7.8 µg/mL
same,MIC,[2]; S. aureus 1122197,1.9 µg/mL
same,MIC,[2]; S. aureus 1125120,15.6 µg/mL
same,MIC,[2]; S. aureus 1132822,3.9 µg/mL
same,MIC,[2]; S. aureus 1142776,1.9 µg/mL
same,MIC,[2]; S. aureus 1144105,1.9 µg/mL
same,MIC,[2]; S. aureus UAMS-1,1.9 µg/mL
same,reduction in CFU at hour 4,[3]; 4 hours post-treatment,2 log
same,reduction in CFU at 24 hr,[3]; 24 hours,7 log
same,MIC in combination,[4]; P. aeruginosa PAO1,0.12 µg/mL and 0.24 µg/mL
same,MIC in combination,[4]; P. aeruginosa RW01,0.12 µg/mL
same,MIC in combination,[4]; P. aeruginosa RW02,0.06 µg/mL
same,MIC in combination,[4]; P. aeruginosa RW03,0.12 µg/mL
same,MIC in combination,[4]; P. aeruginosa RW04,0.12 µg/mL
same,MIC in combination,[4]; P. aeruginosa RW05,0.24 µg/mL
same,MIC in combination,[4]; P. aeruginosa RW06,0.12 µg/mL
same,MIC in combination,[4]; P. aeruginosa RW07,0.12 µg/mL
same,MIC,[4]; P. aeruginosa RW01,0.24 µg/mL
same,MIC,[4]; P. aeruginosa RW02,0.24 µg/mL
same,MIC,[4]; P. aeruginosa RW03,0.24 µg/mL
same,MIC,[4]; P. aeruginosa RW04,0.48 µg/mL
same,MIC,[4]; P. aeruginosa RW05,0.48 µg/mL
same,MIC,[4]; P. aeruginosa RW06,0.24 µg/mL
same,MIC,[4]; P. aeruginosa RW07,0.24 µg/mL
same,MIC,"[4]; PAO1, P. aeruginosa PAO1",0.48 µg/mL
same,reduction in biofilm-associated CFU,[5],5 log
same,"P. aeruginosa growth, 5 μM",[6]; drug 5 μM in presence of 0.2 μg ml^−1 polymyxin B/trimethoprim,−
same,"P. aeruginosa growth, 50 μM",[6]; drug 50 μM in presence of 0.2 μg ml^−1 polymyxin B/trimethoprim,−
